Reference: patent publication US20250367170A1, “TOPICAL ANGIOTENSIN II RECEPTOR BLOCKERS (ARBS) FOR TREATING EYE CONDITIONS” (The Cleveland Clinic Foundation, priority 2022, published 2025)

What was measured:
collagen type IV = assay: IHC collagen type IV intensity in posterior stroma (ImageJ) after Descemetorhexis; assay type: in vivo, New Zealand White rabbits; conditions: one month
Method: (§1) Duplex immunohistochemistry (IHC) was performed after masking of slides by a researcher not involved in the analysis using previously described methods (de Oliveira et al., 2021) using primary antibodies (Table 2) confirmed by western blotting and IHC to recognize rabbit antigens or isotypic control antibodies (ThermoFisher Scientific, Waltham, MA), and secondary fluorescent tagged antibodies (Table 3).
The AB769 (Millipore, Temecula CA) collagen type IV antibody used in this study was generated against purified human and bovine collagen type IV, affinity purified with human and bovine collagen type IV crosslinked to agarose and cross-absorbed by the manufacturer with human and bovine collagens type I, II, III, V and VI to eliminate cross-reactivity. This antibody was shown previously to bind rabbit collagen IV in IHC (Sampaio et al., in press). […]
Collagen type IV intensity in immunohistochemistry images was quantitated in 0.75 W×0.5H rectangles of posterior stroma tangent to the posterior corneal surface using ImageJ on 7.62 cm wide×5.69 cm height and 300 DPI images generated using standardized microscopic illumination settings applied to all sections. The quantitation rectangles were positioned such that the posterior side of the rectangle was tangent to the posterior corneal surface just anterior to Descemet's membrane, if one was present, in the analysed specimens. […]

[1] = tested on: α-smooth muscle actin (SMA) marker for myofibroblasts; assay: IHC for SMA, area of SMA-positive posterior fibrotic stroma (QuPath) after Descemetorhexis; assay type: in vivo, New Zealand White rabbits
Method: At one month after surgery and treatment, an intravenous injection of 100 mg/kg Beuthanasia (Shering-Plough, Kenilworth, NJ) was given for euthanasia with the animals under general anaesthesia. Sharp Westcott scissors (Fairfield, CT, USA) and 0.12 forceps (Storz, St. Louis, MO) were used to remove the comeo-scleral rims of the sham unwounded and DMR eyes without touching the cornea. Each cornea was set in the center of a 24×24×5 mm mold (Fisher Scientific, Pittsburgh, PA, USA) and the mold was filled in liquid OCT compound (Sakura Finetek, Torrance, CA, USA). The molds and cornea-scleral rims were quick frozen on dry ice and stored at −80° C. until sections were cut.
Each OCT block was bisected in the exact center of the cornea, and 8 μm thick transverse sections were cut from the central cornea within the previous DMR injury or unwounded sham surgery corneas with a cryostat (HM 505M; Micron GmbH, Walldorf, Germany) and three sections per slide were placed on 25 mm×75 mm×1 mm Superfrost Plus microscope slides (Fisher Scientific, Pittsburgh, PA, USA). Slides were maintained at −20° C. until immunohistochemistry.
as §1
The area of the SMA-positive posterior fibrotic stroma was quantitated with the original groups masked to the analyzer by standardized photography with a lOx objective on a Leica DM6B upright microscope equipped with an automated stage and Leica 7000 T camera using the LAS X software (Leica Microsystems, GmbH, Wetzlar, Germany). The area of the SMA-positive posterior stromal fibrosis was measured by manually outlining the area on the cornea sections with calibrated QuPath v0.2.3 software using previously described methods (Bankhead et al., 2017). Statistical analysis for the area of SMA-positive fibrosis was performed using the Kruskal-Wallis test followed by post-hoc Dunn's-Bonferroni test and p<0.05 was considered statistically significant.

[2] = tested on: rabbit corneas after -9D PRK; assay: Slit lamp central opacity (ImageJ) one month after -9D PRK; assay type: in vivo, New Zealand white rabbits; conditions: topical 0.2 mg/ml six times a day, vehicle 93±6
Method: Animal procedures were approved by the Institutional Animal Care and Use Committee at the Cleveland Clinic Foundation and animals were treated in accordance with the tenets of the Association for Research in Vision and Ophthalmology Statement for the Use of Animals in Ophthalmic and Vision Research. Twelve female 12- to 15-week-old New Zealand white rabbits weighing 2.5 to 3 kg each were included. Starting 24 hours prior to surgery and continuing 5 days after PRK, all rabbits received 60 mL children's liquid acetaminophen (Johnson & Johnson, Ft. Washington, PA, USA) per 1 L of drinking water. One eye of each rabbit was randomly selected to have −9.0 D (on myopia scale) PRK and received 2 drops of topical 1% proparacaine hydrochloride (Alcon, Fort Worth, TX, USA) prior to the surgery. […]
At 1 month after PRK and treatment, each rabbit was placed under ketamine-xylazine general anesthesia and the eyes were dilated with two drops of 1% tropicamide (Akorn Co., Lake Forest, IL, USA) for 30 minutes. […] For each study cornea, the mean opacity in pixels in the central 3.5 mm of the PRK ablated zone was determined by using ImageJ 1.53a analysis software (National Institutes of Health, Bethesda, MD, USA).

CCCCc1nc(Cl)c(CO)n1Cc1ccc(-c2ccccc2-c2nn[nH]n2)cc1 [losartan]
posterior stromal collagen type IV production vs topical and oral vehicle (collagen type IV; topical and oral losartan): significantly decreased | posterior stromal collagen type IV production vs topical and oral vehicle (collagen type IV; topical losartan): significantly decreased | posterior fibrosis compared with topical and oral vehicle ([1]; Descemetorhexis, oral 5 mg/kg three times per day, one month): similar | mean SMA-positive posterior fibrotic area vs vehicles or topical and oral losartan ([1]; Descemetorhexis, oral losartan alone, one month): not statistically significantly different | mean SMA-positive posterior fibrotic area compared to the other Descemetorhexis groups ([1]; Descemetorhexis, topical 0.1 mg/ml six times a day, one month): significantly lower | SMA-positive fibrotic zone in the posterior cornea ([1]; Descemetorhexis, topical 0.1 mg/ml six times per day, one month): marked decrease | SMA-positive fibrosis in the posterior cornea ([1]; Descemetorhexis, topical six times per day and oral three times per day, one month): decrease | SMA-positive posterior corneal fibrosis in uninjured corneas ([1]; oral three times a day): did not develop | SMA-positive posterior corneal fibrosis in uninjured corneas ([1]; topical six times a day): did not develop | mean pixels of opacity within the central 3.5 mm diameter area (mean±SEM) [2]: 77±3 pixels
